The test system of assay [1] is human pharyngeal cancer cell line FaDu. As to the kind of experiment: Cell growth inhibition test (3). As to conditions: 144 h. Format: cell-based. How it is done: The human pharyngeal cancer cell line FaDu obtained from ATCC (American Type Culture Collection) was used for evaluation. Cells were prepared with MEM containing 10% fetal bovine serum (GE Healthcare), MEM Non-Essential Amino Acids Solution (Thermo Fisher Scientific), and Sodium Pyruvate (Thermo Fisher Scientific) (Thermo Fisher Scientific; hereinafter, referred to as EMEM medium) to reach 6.25×10^3 cells/mL, and 80 μL portions of them were added into a 96-well cell culture microplate. After addition of the cells, the cells were cultured at 37° C. and 5% CO2 overnight.
(§1) On the next day, 10 μL portions of pyrrolobenzodiazepine derivative A, B, or C diluted with EMEM medium to 100 pM, 50 pM, 25 pM, 12.5 pM, 6.25 pM, 3.13 pM, 1.56 pM, or 0.78 pM were added to the microplate. To each well without any pyrrolobenzodiazepine derivative, 10 μL of EMEM medium was added. Further, 10 μL portions of talazoparib prepared with EMEM medium to reach 2 nM were added to the microplate. To each well without talazoparib, 10 μL of EMEM medium was added. Thereafter, the microplate was cultured at 37° C. and 5% CO2 for 6 days. After culturing, the microplate was taken out of the incubator, and left to stand at room temperature for 30 minutes. CellTiter-Glo Luminescent Cell Viability Assay (Promega Corporation) in an amount equivalent to that of the culture solution was added, and stirred using a plate mixer. The microplate was left to stand at room temperature for 10 minutes, and thereafter the amount of emission was measured by using a plate reader (PerkinElmer).
Cell survival rates in wells with derivative A, B, or C were calculated by using the following formula.
[formula] • a: Mean value of amounts of emission from wells with derivative A, B, or C • b: Mean value of amounts of emission from wells with medium • IC50 values were calculated by using the following formula.
[formula] • a: Concentration of derivative A, B, or C, a • b: Concentration of derivative A, B, or C, b • c: Cell survival rate when derivative A, B, or C of concentration a was added • d: Cell survival rate when derivative A, B, or C of concentration b was added • a and b satisfy a>b at points sandwiching a cell survival rate of 50%.
Cell survival rates in wells with derivative A, B, or C added together with 2 nM talazoparib were calculated by using the following formula.
[formula] • a: Mean value of amounts of emission from wells with derivative A, B, or C added together with 2 nM talazoparib • b: Mean value of amounts of emission from wells with 2 nM talazoparib • IC50 values were calculated by using the following formula.
[formula] • a: Concentration of derivative A, B, or C, a • b: Concentration of derivative A, B, or C, b • c: Cell survival rate when derivative A, B, or C of concentration a and 2 nM talazoparib were added • d: Cell survival rate when derivative A, B, or C of concentration b and 2 nM talazoparib were added • a and b satisfy a>b at points sandwiching a cell survival rate of 50%.

Assay [2] relates to human ovarian cancer cell line SK-OV-3. As to the kind of experiment: Cell growth inhibition test (4). The class given is cell-based. The note with it: for pIC50: SK-OV-3, 144 h. How it is done: Cells of the human ovarian cancer cell line SK-OV-3 purchased from ATCC (American Type Culture Collection) were used for evaluation. Cells were prepared with McCoy's 5A (Modified) Medium containing 10% fetal bovine serum (GE Healthcare) (Thermo Fisher Scientific; hereinafter, referred to as McCoy's SA medium) to reach 1.25×10^4 cells/mL, and 80 μL portions of them were added into a 96-well cell culture microplate. After addition of the cells, the cells were cultured at 37° C. and 5% CO2 overnight.
as §1, with “derivative A” for “derivative A, B, or C”, “with McCoy's 5A” for “with EMEM”, “without” for “without any”, “pyrrolobenzodiazepine derivative A,” for “pyrrolobenzodiazepine derivative,”, “of McCoy's 5A” for “of EMEM”, “reach 5” for “reach 2”
Cell survival rates in wells with derivative A were calculated by using the following formula.
[formula] • a: Mean value of amounts of emission from wells with derivative A • b: Mean value of amounts of emission from wells with medium • IC50 values were calculated by using the following formula. […]
Cell survival rates in wells with derivative A added together with 5 nM talazoparib were calculated by using the following formula. […]

pIC50: −log10 of the molar value. Read-outs that look alike come from different tables or passages of the source. Where only a bound is given, the exact number is not on record here.

Broadly, the inhibition is the drop in the measured response relative to a control, in per cent. High values mean a response far below the control, low ones a response near the control. Turning to `Cn1ncnc1[C@H]1c2n[nH]c(=O)c3cc(F)cc(c23)N[C@@H]1c1ccc(F)cc1` [talazoparib], the inhibition at 0.002 µM in assay [1] (2 nM talazoparib alone, 6 days) is less than 10%. Besides, the inhibition at 0.005 µM in assay [2] (144 h, 5 nM talazoparib alone, SK-OV-3, 6 days) is less than 10%.

What is called pIC50 is the negative decadic logarithm of the IC50, by convention in mol/L. For the compound `COc1ccc(C2=CN3C(=O)c4cc(OC)c(OCCCCCOc5cc6c(cc5OC)C(=O)N5CC7(CC7)C[C@H]5C=N6)cc4NC[C@@H]3C2)cc1` [derivative A, (11a′S)-7′-Methoxy-8′-[(5-{[(11aS)-7-methoxy-2-(4-methoxyphenyl)-5-oxo-5,10,11,11a-tetrahydro-1H-pyrrolo[2,1-c][1,4]benzodiazepin-8-yl]oxy}pentyl)oxy]-1′,11a′-dihydro-5′H-spiro[cyclopropane-1,2′-pyrrolo[2,1-c][1,4]benzodiazepine]-5′-one], the pIC50 in assay [1] (read-out: IC50, growth-suppressing effect, added singly, FaDu, 6 days (test 3)) is 11.11; in assay [1] (read-out: IC50, growth-suppressing effect, added together with 2 nM talazoparib, FaDu, 6 days) it was 11.33; in assay [2] (read-out: IC50, growth-suppressing effect, added singly, SK-OV-3, 6 days) it was 11.09; in assay [2] (read-out: IC50, growth-suppressing effect, added together with 5 nM talazoparib, SK-OV-3, 6 days) it was 11.34.
